Test results taken from patent US7531554B2, “4-oxoquinoline compound and use thereof as HIV integrase inhibitor” (Japan Tobacco Inc., priority 2004, dated 2009).
Structures can show the parent of a compound that is named as a salt.

molecular target: T1, HIV integrase (Human immunodeficiency virus type 1 group M subtype B, UniProt P12497, F1332H); assay: Determination of enzyme (HIV integrase) inhibitory activity; format: biochemical; conditions: recombinant integrase protein (F185H), donor DNA/target DNA, absorbance at 450 nm
T1 construct: HIV integrase full length gene (J. Virol., 67, 425-437 (1993)) in which phenylalanine at codon 185 was substituted by histidine; made in house; host or cells: Escherichia coli BL21(DE3)
Protocol: HIV integrase full length gene (J. Virol., 67, 425-437 (1993)) in which phenylalanine at codon 185 was substituted by histidine, was inserted between the restriction enzyme NdeI and XhoI sites of plasmid pET21a(+) (Novagen), whereby an integrase expression vector pET21a-IN-F185H was constructed.
Escherichia coli recombinant BL21(DE3) transformed with plasmid pET21a-IN-F185H obtained in (i) was shake cultured at 30° C. in a liquid medium containing ampicillin. When the culture reached the logarithmic growth phase, isopropyl-β-D-thiogalactopyranoside was added to promote expression of integrase gene. The culture was continued for 3 hr to promote accumulation of the integrase protein. The recombinant E. coli was collected in pellets by centrifugal separation and preserved at −80° C.
The E. coli was suspended in Lysis buffer (20 mM HEPES (pH 7.5), 5 mM DTT, 10 mM CHAPS, 10% glycerol) containing 1M sodium chloride and subjected to repeat pressurization and depressurization for rupture, and centrifugal separation at 4° C., 40,000×g, 60 min to recover a water-soluble fraction (supernatant). This was diluted 10-fold with Lysis buffer free of sodium chloride, mixed with SP-Sepharose (Pharmacia Corporation) and stirred at 4° C. for 60 min to allow adsorption of integrase protein to the resin. The resin was washed with Lysis buffer containing 100 mM sodium chloride and the integrase protein was eluted with Lysis buffer containing 1M sodium chloride.
The eluted integrase protein solution was subjected to a Superdex 75 (Pharmacia Corporation) column for gel filtration. The protein was eluted with Lysis buffer containing 1M sodium chloride.
The obtained fractions of the integrase protein were collected and preserved at −80° C.
The following DNA synthesized by Greiner was dissolved in TE buffer (10 mM Tris-hydrochloric acid (pH 8.0), 1 mM EDTA) and mixed with donor DNA, target DNA, and each complementary strand (+ and − strands) to 1 μM. The mixture was heated at 95° C. for 5 min, 80° C. for 10 min, 70° C. for 10 min, 60° C. for 10 min, 50° C. for 10 min and 40° C. for 10 min and kept at 25° C. to give a double stranded DNA, which was used for the test. Donor DNA ([…] attached to the 5′ terminal) Donor + strand: 5′-Biotin-ACCCTTTTAGTCAGTGTGGAAAATCTCTAGCA-3′ (SEQ ID NO:1) Donor − strand: 5′-ACTGCTAGAGATTTTCCACACTGACTAAAAG-3′ (SEQ ID NO:2) Target DNA (+, − strands both having digoxigenin added at 3′ terminal) Target + strand: 5′-TGACCAAGGGCTAATTCACT-Dig-3′ (SEQ ID NO:3) Target − strand: 5′-AGTGAATTAGCCCTTGGTCA-Dig-3′ (SEQ ID NO:4)
The donor DNA was diluted with TE buffer to 10 nM, of which 50 μl was added to each well of streptavidin-coated microtiter plate (Roche) and allowed to adsorb at 37° C. for 60 min. The plate was washed with phosphate buffer (Dulbecco's PBS, Sanko Junyaku Co., Ltd.) containing 0.1% Tween 20 and phosphate buffer. Then, an enzyme reaction mixture (70 μl), a test substance (10 μl) diluted with the reaction mixture and 100 μg/ml integrase protein (10 μl) were added to each well and reacted at 37° C. for 60 min.
Then, 50 nM target DNA (10 μl) was added, reacted at 37° C. for 10 min and washed with phosphate buffer containing 0.1% Tween 20 to stop the reaction.
Then, 100 mU/ml peroxidase labeled anti-digoxigenin antibody solution (Roche, 100 μl) was added, and the mixture was reacted at 37° C. for 60 min, followed by washing with phosphate buffer containing 0.1% Tween 20.
A peroxidase color solution (Bio Rad, 100 μl) was added and allowed to react at room temperature for 4 min. The color reaction was stopped by adding 1N sulfuric acid (100 μl). The absorbance at 450 nm was measured.
The HIV integrase inhibitory activity (IC50) of the compound of the present invention was calculated from the inhibition rate according to the following formula. […]

SMILES	IC50
CC(C)[C@@H](CO)n1cc(C(=O)O)c(=O)c2cc(Cc3cccc(Cl)c3F)c(Oc3ccccc3)cc21 [Example 4-44, 6-(3-chloro-2-fluorobenzyl)-1-((1S)-1-(hydroxymethyl)-2-methylpropyl)-4-oxo-7-phenoxy-1,4-dihydroquinoline-3-carboxylic acid]	4.9 nM
CC(C)[C@@H](CO)n1cc(C(=O)O)c(=O)c2cc(Cc3cccc(Cl)c3F)c(OCCN3CCN(C)CC3)cc21 [Example 4-51, 6-(3-chloro-2-fluorobenzyl)-1-((1S)-1-(hydroxymethyl)-2-methylpropyl)-7-(2-(4-methylpiperazin-1-yl)ethoxy)-4-oxo-1,4-dihydroquinoline-3-carboxylic acid ditrifluoroacetate]	6 nM
CC(C)[C@@H](CO)n1cc(C(=O)O)c(=O)c2cc(Cc3cccc(Cl)c3F)c(N3CCOCC3)cc21 [Example 4-9, 6-(3-chloro-2-fluorobenzyl)-1-((1S)-1-(hydroxymethyl)-2-methylpropyl)-7-(morpholin-4-yl)-4-oxo-1,4-dihydroquinoline-3-carboxylic acid]	6 nM
CC(C)[C@@H](CO)n1cc(C(=O)O)c(=O)c2cc(Cc3cccc(Cl)c3F)c(N3CCN[C@@H](C)C3)cc21 [Example 4-30, 6-(3-chloro-2-fluorobenzyl)-1-((1S)-1-(hydroxymethyl)-2-methylpropyl)-7-((3S)-3-methylpiperazin-1-yl)-4-oxo-1,4-dihydroquinoline-3-carboxylic acid]	6.1 nM
CC(C)[C@@H](CO)n1cc(C(=O)O)c(=O)c2cc(Cc3cccc(Cl)c3F)c(OCCN3CCCCC3)cc21 [Example 4-13, 6-(3-chloro-2-fluorobenzyl)-1-((1S)-1-(hydroxymethyl)-2-methylpropyl)-4-oxo-7-(2-(piperidin-1-yl)ethoxy)-1,4-dihydroquinoline-3-carboxylic acid]	6.3 nM
COc1cc2c(cc1Cc1c(F)cccc1Cl)c(=O)c(C(=O)O)cn2[C@H](CO)C(C)C [Example 7-1, 6-(2-chloro-6-fluorobenzyl)-1-((1S)-1-(hydroxymethyl)-2-methylpropyl)-7-methoxy-4-oxo-1,4-dihydroquinoline-3-carboxylic acid]	17 nM
CC(C)[C@@H](CO)n1cc(C(=O)O)c(=O)c2cc(Cc3cccc(Cl)c3F)c(O[C@@H]3CCNC3)cc21 [Example 4-37, 6-(3-chloro-2-fluorobenzyl)-1-((1S)-1-(hydroxymethyl)-2-methylpropyl)-4-oxo-7-((3R)-pyrrolidin-3-yloxy)-1,4-dihydroquinoline-3-carboxylic acid hydrochloride]	4.4 nM
CC(C)[C@@H](CO)n1cc(C(=O)O)c(=O)c2cc(Cc3cccc(Cl)c3F)c(OCCN3CCOCC3)cc21 [Example 4-16, 6-(3-chloro-2-fluorobenzyl)-1-((1S)-1-(hydroxymethyl)-2-methylpropyl)-7-(2-(morpholin-4-yl)ethoxy)-4-oxo-1,4-dihydroquinoline-3-carboxylic acid]	7.9 nM
CC(C)[C@@H](CO)n1cc(C(=O)O)c(=O)c2cc(Cc3cccc(Cl)c3F)c(OCCN)cc21 [Example 4-18, 7-(2-aminoethoxy)-6-(3-chloro-2-fluorobenzyl)-1-((1S)-1-(hydroxymethyl)-2-methylpropyl)-4-oxo-1,4-dihydroquinoline-3-carboxylic acid hydrochloride]	4.8 nM
COCCCOc1cc(Cc2cccc(Cl)c2F)cc2c(=O)c(C(=O)O)cn([C@H](CO)C(C)C)c12 [Example 3-7, 6-(3-chloro-2-fluorobenzyl)-1-((1S)-1-(hydroxymethyl)-2-methylpropyl)-8-(3-methoxypropoxy)-4-oxo-1,4-dihydroquinoline-3-carboxylic acid]	4.7 nM
CC(C)[C@@H](CO)n1cc(C(=O)O)c(=O)c2cc(Cc3cccc(Cl)c3F)c(OCC(=O)O)cc21 [Example 4-50, 7-(carboxymethoxy)-6-(3-chloro-2-fluorobenzyl)-1-((1S)-1-(hydroxymethyl)-2-methylpropyl)-4-oxo-1,4-dihydroquinoline-3-carboxylic acid]	5.3 nM
CC(C)[C@@H](CO)n1cc(C(=O)O)c(=O)c2cc(Cc3cccc(Cl)c3F)c(OCS(N)(=O)=O)cc21 [Example 4-52, 7-((aminosulfonyl)methoxy)-6-(3-chloro-2-fluorobenzyl)-1-((1S)-1-(hydroxymethyl)-2-methylpropyl)-4-oxo-1,4-dihydroquinoline-3-carboxylic acid]	6.6 nM
CC(C)[C@@H](CO)n1cc(C(=O)O)c(=O)c2cc(Cc3cccc(Cl)c3F)c(OC3CCOCC3)cc21 [Example 4-36, 6-(3-chloro-2-fluorobenzyl)-1-((1S)-1-(hydroxymethyl)-2-methylpropyl)-4-oxo-7-(tetrahydropyran-4-yloxy)-1,4-dihydroquinoline-3-carboxylic acid]	5.4 nM
CC(C)[C@@H](CO)n1cc(C(=O)O)c(=O)c2cc(Cc3cccc(Cl)c3F)c(O)cc21 [Example 7-5, 6-(3-chloro-2-fluorobenzyl)-7-hydroxy-1-((1S)-1-(hydroxymethyl)-2-methylpropyl)-4-oxo-1,4-dihydroquinoline-3-carboxylic acid]	3.2 nM
COc1cc2c(cc1Cc1cc(F)c(F)c(Cl)c1F)c(=O)c(C(=O)O)cn2[C@H](CO)C(C)C [Example 1-7, 6-(3-chloro-2,4,5-trifluorobenzyl)-1-((1S)-1-(hydroxymethyl)-2-methylpropyl)-7-methoxy-4-oxo-1,4-dihydroquinoline-3-carboxylic acid]	5.5 nM
CSCC[C@@H](CO)n1cc(C(=O)O)c(=O)c2cc(Cc3cccc(Cl)c3F)ccc21 [Example 2-16, 6-(3-chloro-2-fluorobenzyl)-1-((1S)-1-(hydroxymethyl)-3-(methylthio)propyl)-4-oxo-1,4-dihydroquinoline-3-carboxylic acid]	5.8 nM
CC(=O)NCCOc1cc2c(cc1Cc1cccc(Cl)c1F)c(=O)c(C(=O)O)cn2[C@H](CO)C(C)C [Example 4-41, 7-(2-(acetylamino)ethoxy)-6-(3-chloro-2-fluorobenzyl)-1-((1S)-1-(hydroxymethyl)-2-methylpropyl)-4-oxo-1,4-dihydroquinoline-3-carboxylic acid]	4.5 nM
COCCCCOc1cc(Cc2cccc(Cl)c2F)cc2c(=O)c(C(=O)O)cn([C@H](CO)C(C)C)c12 [Example 3-8, 6-(3-chloro-2-fluorobenzyl)-1-((1S)-1-(hydroxymethyl)-2-methylpropyl)-8-(4-methoxybutoxy)-4-oxo-1,4-dihydroquinoline-3-carboxylic acid]	4 nM
CC(C)[C@@H](CO)n1cc(C(=O)O)c(=O)c2cc(Cc3cccc(Cl)c3F)c(O[C@@H]3CCOC3)cc21 [Example 4-48, 6-(3-chloro-2-fluorobenzyl)-1-((1S)-1-(hydroxymethyl)-2-methylpropyl)-4-oxo-7-((3R)-tetrahydrofuran-3-yloxy)-1,4-dihydroquinoline-3-carboxylic acid]	5.6 nM
COc1cc2c(cc1Cc1cccc(Cl)c1Cl)c(=O)c(C(=O)O)cn2[C@H](CO)C(C)C [Example 7-2, 6-(2,3-dichlorobenzyl)-1-((1S)-1-(hydroxymethyl)-2-methylpropyl)-7-methoxy-4-oxo-1,4-dihydroquinoline-3-carboxylic acid]	4.5 nM
